Laboratory results from PubChem BioAssay (NCI).
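Test compounds were applied to cells in 96-well plates for 48 hours at 5 doses. GI50: concentration for 50% inhibition of growth. TGI marks complete inhibition of growth.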

Columns and labels:
Assay in all cases: NCI anticancer screen, dose series, 48 h
[1] = test system: DU-145 prostate
[2] = test system: PC-3 prostate
[3] = test system: HCT-15 colon
[4] = test system: IGROV1 ovarian
[5] = test system: SW-620 colon
[6] = test system: T-47D breast
[7] = test system: SF-539 CNS
[8] = test system: HCC-2998 colon
[9] = test system: COLO 205 colon
[10] = test system: TK-10 renal
[11] = test system: M14 melanoma
[12] = test system: OVCAR-5 ovarian
[13] = test system: SK-OV-3 ovarian
[14] = test system: 786-0 renal
[15] = test system: K-562 leukemia
[16] = test system: ACHN renal
[17] = test system: OVCAR-4 ovarian
[18] = test system: A498 renal
[19] = test system: MOLT-4 leukemia
[20] = test system: SNB-19 CNS
[21] = test system: RXF 393 renal
[22] = test system: HS 578T breast
[23] = test system: UO-31 renal
[24] = test system: OVCAR-3 ovarian
[25] = test system: OVCAR-8 ovarian
[26] = test system: CCRF-CEM leukemia
[27] = test system: SR leukemia
[28] = test system: SK-MEL-28 melanoma
[29] = test system: HOP-62 NSCLC
[30] = test system: HL-60(TB) leukemia
[31] = test system: NCI-H226 lung
[32] = test system: KM12 colon
[33] = test system: HCT-116 colon
[34] = test system: SF-268 CNS
[35] = test system: HT29 colon
[36] = test system: MCF7 breast
[37] = test system: NCI/ADR-RES ovarian
[38] = test system: EKVX NSCLC
[39] = test system: MDA-MB-231 breast
[40] = test system: U251 CNS
[41] = test system: CAKI-1 renal
[42] = test system: LOX IMVI melanoma
[43] = test system: MDA-MB-435
[44] = test system: HOP-92 NSCLC
[45] = test system: SN12C renal
[46] = test system: NCI-H522 lung
[47] = test system: UACC-62 melanoma
[48] = test system: A549 NSCLC
[49] = test system: SF-295 CNS
[50] = test system: UACC-257 melanoma
[51] = test system: NCI-H23 lung
[52] = test system: RPMI-8226 leukemia
[53] = test system: SK-MEL-5 melanoma
[54] = test system: MALME-3M melanoma
[55] = test system: NCI-H460 lung
[56] = test system: SNB-75 CNS
[57] = test system: SK-MEL-2 melanoma

CC(C)(C)NCCC(O)c1cc2c(Cl)cc(Cl)cc2c2cc(C(F)(F)F)ccc12 (stereo not drawn)
GI50 [1]: 1.97 µM | TGI [1]: 3.5 µM

COc1ccc(C2=Nc3c/c(=C\c4c(O)[nH]c5ccc(Cl)cc45)ccc3=N2)cc1
GI50 [2]: 1.56 µM | TGI [2]: 4 µM | GI50 [3]: 1.26 µM | TGI [3]: 2.77 µM | GI50 [4]: 2.16 µM | TGI [4]: 5.28 µM | GI50 [5]: 1.41 µM | TGI [5]: 3.28 µM | GI50 [6]: 2.22 µM | TGI [6]: 5.63 µM | GI50 [7]: 1.78 µM | TGI [7]: 3.87 µM | GI50 [8]: 1.24 µM | TGI [8]: 2.51 µM | GI50 [9]: 1.93 µM | TGI [9]: 3.67 µM | GI50 [10]: 2.45 µM | TGI [10]: 4.42 µM | GI50 [11]: 1.29 µM | TGI [11]: 3.67 µM | GI50 [12]: 1.86 µM | TGI [12]: 4 µM | GI50 [13]: 2.23 µM | TGI [13]: 5.23 µM | GI50 [14]: 1.94 µM | TGI [14]: 3.81 µM | GI50 [15]: 1 µM | TGI [15]: 6.29 µM | GI50 [16]: 1.83 µM | TGI [16]: 3.47 µM | GI50 [17]: 1.8 µM | TGI [17]: 3.34 µM | GI50 [18]: 1.33 µM | TGI [18]: 7.78 µM | GI50 [19]: 1.99 µM | TGI [19]: 6.08 µM | GI50 [20]: 1.84 µM | TGI [20]: 5.85 µM | GI50 [21]: 1.58 µM | TGI [21]: 3.15 µM | GI50 [22]: 1.73 µM | TGI [22]: 4.8 µM | GI50 [23]: 1.46 µM | TGI [23]: 3.46 µM | GI50 [24]: 1.53 µM | TGI [24]: 2.91 µM | GI50 [25]: 2.05 µM | TGI [25]: 4.7 µM | GI50 [26]: 1.97 µM | TGI [26]: 5.52 µM | GI50 [27]: 0.693 µM | TGI [27]: 3.4 µM | GI50 [28]: 1.59 µM | TGI [28]: 5.13 µM | GI50 [29]: 1.82 µM | TGI [29]: 4.02 µM | GI50 [30]: 1.51 µM | TGI [30]: 3.94 µM | GI50 [31]: 13.8 µM | TGI [31]: 37 µM | GI50 [1]: 1.63 µM | TGI [1]: 3.17 µM | GI50 [32]: 1.22 µM | TGI [32]: 2.65 µM | GI50 [33]: 1.55 µM | TGI [33]: 3.1 µM | GI50 [34]: 2.09 µM | TGI [34]: 5.47 µM

CCOc1ccc2nc(-c3cccc(OCC(=O)NC(C)C)c3)nc(Nc3ccc(-c4cn[nH]c4)cc3)c2c1
GI50 [35]: 0.751 µM | TGI [35]: 5.09 µM | GI50 [2]: 0.348 µM | TGI [2]: 2 µM | GI50 [36]: 0.348 µM | TGI [36]: 2.11 µM | GI50 [3]: 0.834 µM | TGI [3]: 3.69 µM | GI50 [4]: 0.927 µM | TGI [4]: 7.4 µM | GI50 [37]: 1.92 µM | TGI [37]: 22.9 µM | GI50 [38]: 1.22 µM | TGI [38]: 8.34 µM | GI50 [39]: 1.68 µM | TGI [39]: 10.7 µM | GI50 [5]: 1.35 µM | TGI [5]: 5.99 µM | GI50 [40]: 0.431 µM | TGI [40]: 2.15 µM | GI50 [41]: 0.968 µM | TGI [41]: 3.87 µM | GI50 [6]: 0.292 µM | TGI [6]: 3.57 µM | GI50 [7]: 1.25 µM | TGI [7]: 2.67 µM | GI50 [8]: 1.45 µM | TGI [8]: 7.91 µM | GI50 [42]: 0.491 µM | TGI [42]: 2.33 µM | GI50 [9]: 0.686 µM | TGI [9]: 5.4 µM | GI50 [10]: 1.89 µM | TGI [10]: 5.2 µM | GI50 [11]: 1.22 µM | TGI [11]: 10.5 µM | GI50 [43]: 0.485 µM | TGI [43]: 3.81 µM | GI50 [12]: 3.3 µM | TGI [12]: 21.9 µM | GI50 [13]: 4.53 µM | TGI [13]: 13 µM | GI50 [14]: 0.553 µM | TGI [14]: 2.63 µM | GI50 [44]: 0.452 µM | TGI [44]: 3.29 µM | GI50 [15]: 0.454 µM | GI50 [45]: 1.06 µM | TGI [45]: 3.76 µM | GI50 [46]: 0.62 µM | TGI [46]: 3.33 µM | GI50 [47]: 1.21 µM | TGI [47]: 4.16 µM | GI50 [48]: 0.769 µM | TGI [48]: 3.54 µM | GI50 [49]: 0.711 µM | TGI [49]: 3.01 µM | GI50 [16]: 0.675 µM | TGI [16]: 2.96 µM | GI50 [17]: 1.53 µM | TGI [17]: 3.52 µM | GI50 [18]: 2.54 µM | TGI [18]: 9.85 µM | GI50 [50]: 1.79 µM | TGI [50]: 4.12 µM | GI50 [19]: 0.319 µM | TGI [19]: > 31.9 µM | GI50 [20]: 0.598 µM | TGI [20]: 3.76 µM | GI50 [21]: 0.401 µM | TGI [21]: 2.16 µM | GI50 [22]: 0.132 µM | TGI [22]: 1.72 µM | GI50 [23]: 0.344 µM | TGI [23]: 3.51 µM | GI50 [24]: 1.34 µM | TGI [24]: 3.12 µM | GI50 [25]: 0.586 µM | TGI [25]: 4.76 µM | GI50 [26]: 0.315 µM | TGI [26]: > 51.6 µM | GI50 [27]: 1.13 µM | TGI [27]: > 43 µM | GI50 [28]: 1.13 µM | TGI [28]: 3 µM | GI50 [29]: 0.399 µM | TGI [29]: 2.22 µM | GI50 [51]: 1.29 µM | TGI [51]: 10.2 µM | GI50 [52]: 0.232 µM | TGI [52]: 4.9 µM | GI50 [53]: 1.17 µM | TGI [53]: 2.58 µM | GI50 [30]: 0.661 µM | TGI [30]: 3.41 µM | GI50 [31]: 0.783 µM | TGI [31]: 3.19 µM | GI50 [54]: 0.324 µM | TGI [54]: 1.79 µM | GI50 [55]: 0.34 µM | TGI [55]: 1.66 µM | GI50 [1]: 0.403 µM | TGI [1]: 2.91 µM | GI50 [56]: 1.16 µM | TGI [56]: 2.48 µM | GI50 [32]: 0.527 µM | TGI [32]: 6.9 µM | GI50 [57]: 1.56 µM | TGI [57]: 5.31 µM | GI50 [33]: 0.783 µM | TGI [33]: 3.18 µM | GI50 [34]: 1.35 µM | TGI [34]: 7 µM
